Experimental data from patent US20200291350A1, “HEPATOCYTE CONSTRUCT AND METHOD FOR PRODUCING THE SAME” (NIHON KOHDEN CORPORATION, priority 2019, published 2020).

Columns and labels:
Type in all cases: cell-based
[1] = test system: mouse hepatocyte/NHDF cell sheet; test: Effect of added agent on ballooning of mouse hepatocytes in PMH/NHDF hepatocyte construct (H&E staining); conditions: metformin 500 μM added on day 1; mouse hepatocyte/NHDF cell sheet day 8
Experimental: (§1) At pre-determined time points, cell sheet samples were washed by pre-warmed PBS twice and fixed in 4% paraformaldehyde at room temperature for 1 h. Fixed cell sheets were embedded in paraffin, sliced into 4 μm sections and deparaffinized for standard histological staining with hematoxylin and eosin (HE). For immunostainings of cytokeratin 8+18 (CK8/18), sections were treated with Dako proteinase K (Agilent, Santa Clara, Calif., US) for antigen retrieval, incubated in Dako REAL peroxidase-blocking solution (Agilent) to quench endogenous peroxidase activity, and then blocked in Blocking One Histo (Nacalai Tesque, Kyoto, Japan). After that, the sections were incubated with mouse anti-human CK8/18 at 25-fold dilution (Abeam, Cambridge, UK) followed by incubation with horseradish […] donkey anti-mouse IgG H&L (Abeam). The sections were dyed with Dako Liquid DAB+Substrate Chromogen System (Agilent) and the nuclei were stained with hematoxylin. Finally, the sections were mounted, dried and imaged with a light microscope (Nikon).
Primary mouse hepatocytes (PMH) were obtained in the same manner as in Example 3.
As NHDFs, NHDFs used in Example 1 were used.
Primary mouse hepatocytes (PMH)/NHDF co-culture and production of a hepatocyte construct were performed in the same manner as in Example 1 except that PMHs were used in place of the above-mentioned PHHs. […]

PHH/NHDF cell sheet = test: Effect of added agent on ballooning of human hepatocytes in PHH/NHDF hepatocyte construct (H&E staining); conditions: metformin 500 μM added on day 1; PHH/NHDF cell sheet on day 11 or day 4
Experimental: as §1
As PHHs and NHDFs, PHHs and NHDFs used in Example 1 were used.
Primary human hepatocytes (PHH)/NHDF co-culture and production of a hepatocyte construct were performed in the same manner as in Example 1 described above. […]

[2] = test system: mouse hepatocyte/NHDF cell sheet; test: Hepatocellular ballooning in mouse hepatocyte/NHDF cell sheet made with mitomycin C-treated NHDFs (H&E staining); conditions: NHDFs treated with mitomycin C 6 μg/mL for 2.5 hours before co-culture with PMHs; cell sheet day 8; vs untreated NHDFs
Experimental: as §1
Primary mouse hepatocytes (PMH) were isolated from the liver of a mouse by a modified two-step collagenase perfusion method and purified by a 45% percoll density gradient centrifugation method. The viability of PMHs was 90%.
As NHDFs, NHDFs used in Example 1 were used. […]

| Compound | hepatocellular ballooning [1] | hepatocellular ballooning (PHH/NHDF cell sheet) | hepatocellular ballooning [2] |
| --- | --- | --- | --- |
| CN(C)C(=N)N=C(N)N [metformin] | suppressed | suppressed |  |
| CO[C@@]12[C@H](COC(N)=O)C3=C(C(=O)C(C)=C(N)C3=O)N1C[C@@H]1N[C@@H]12 [mitomycin C] |  |  | suppressed |
